This note sets out measurements from PMC6934184, “Selective DNA-PKcs inhibition extends the therapeutic index of localized radiotherapy and chemotherapy” (The Journal of Clinical Investigation, 2019).

The experiment addresses T1, SNF1LK2 (Homo sapiens, UniProt Q9H0K1).
T1 construct: purchased Thermo Fisher Scientific (Life Technologies) SelectScreen
Put plainly: SelectScreen Z'LYTE. The format is biochemical. The gist of the method: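 SelectScreen broad panel; activity (Z'LYTE, Adapta) plus binding formats. ATP: Km app for CSF1R Z'LYTE; 10 for CAMK1 Adapta. Readout = % per kinase.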

T1 sequence (Q9H0K1 whole entry): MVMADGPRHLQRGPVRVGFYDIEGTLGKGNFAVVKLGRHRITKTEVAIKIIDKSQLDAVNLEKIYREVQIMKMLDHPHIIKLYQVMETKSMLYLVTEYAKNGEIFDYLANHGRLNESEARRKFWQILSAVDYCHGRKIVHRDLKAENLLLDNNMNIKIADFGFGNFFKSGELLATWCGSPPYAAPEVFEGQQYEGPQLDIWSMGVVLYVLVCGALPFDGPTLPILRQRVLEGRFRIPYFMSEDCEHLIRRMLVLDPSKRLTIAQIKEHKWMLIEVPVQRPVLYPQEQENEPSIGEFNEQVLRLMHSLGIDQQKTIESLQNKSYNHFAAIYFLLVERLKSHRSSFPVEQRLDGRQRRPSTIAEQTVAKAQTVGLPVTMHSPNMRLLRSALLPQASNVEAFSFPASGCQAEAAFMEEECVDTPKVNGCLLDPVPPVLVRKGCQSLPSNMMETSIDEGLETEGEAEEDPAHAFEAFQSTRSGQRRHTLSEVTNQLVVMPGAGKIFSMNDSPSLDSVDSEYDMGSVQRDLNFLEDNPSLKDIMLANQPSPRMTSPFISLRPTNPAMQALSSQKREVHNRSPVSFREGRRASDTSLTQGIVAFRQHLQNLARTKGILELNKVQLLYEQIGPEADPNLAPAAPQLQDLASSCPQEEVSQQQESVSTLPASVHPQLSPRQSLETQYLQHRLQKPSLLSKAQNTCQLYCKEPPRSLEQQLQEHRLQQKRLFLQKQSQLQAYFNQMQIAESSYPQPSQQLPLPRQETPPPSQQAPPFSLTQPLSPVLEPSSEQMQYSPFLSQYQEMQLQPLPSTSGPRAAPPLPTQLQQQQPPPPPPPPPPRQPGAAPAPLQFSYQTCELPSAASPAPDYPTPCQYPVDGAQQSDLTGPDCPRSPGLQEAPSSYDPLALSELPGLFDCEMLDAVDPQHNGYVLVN

In turn, `CN(C(=O)CN1CCOCC1)c1ccc2sc3c(-c4cccc5c(=O)cc(N6CC7CCC(C6)O7)oc45)cccc3c2c1` [NU5455] registered an inhibition at 1 µM of 26.6%.
